The test system of experiment [1] is 6F11-rAb. As to the kind of experiment: icELISA with full-length recombinant 6F11-rAb. It is filed as binding, mouse. As to conditions: for CR: cross-reactivity relative to imidacloprid; for IC50: imidacloprid-OVA 10 µg/mL. On the procedure:
Transient production in the HEK 293F suspension cells was performed as described. Briefly, cells were prepared with viable cell density around 1.5 × 10^6 cells/mL and viability above 95 % in 180 mL serum-free culture medium in 500 mL Nunc Erlenmeyer flasks and incubated at 37 °C in 5% CO2 atmosphere and shaken at 130 rpm in an orbital shaker for 2 h. A total of 90 μg of the plasmids (VH:VL = 2:3) mixed with transfection reagent were pre-warmed for 15 min and then transiently transfected into HEK 293F. After 5 days of incubation, the supernatant was collected and purified by protein G. The size of the purified full-length rAb was identified by SDS-PAGE.
(§1) Checkerboard titration was carried out by icELISAs with serial dilutions of the antibody and coating antigen (imidacloprid-OVA). […] The specificity and sensitivity were determined by icELISAs. Briefly, the mixture of standards with different concentrations and equal volume of antibody was added into the reaction wells of pre-coated plates. Standard curves were fitted into a four-parameter logarithmic equation: Y = A2 + [(A1 − A2)/1 + (X/X0)^p], and the half-maximal inhibitory concentration (IC50, defined as the assay sensitivity, was used to calculate cross-reactivity rate(CR).
(§2) Under the optimal working concentrations of 10 µg/mL for imidacloprid-OVA, icELISAs with high sensitivity to neonicotinoid pesticides and metabolites were established.

A further experiment relates to 6F11-mAb. As to the kind of experiment: icELISA with purified 6F11-mAb. It is filed as binding, mouse. Conditions: for CR / IC50: 6F11-mAb; for CR: cross-reactivity relative to imidacloprid; for IC50: imidacloprid-OVA 10 µg/mL; for recognition by the antibody (6F11): in words. As to the method: (§3) Procedures for the immunization, cell fusion and clone selection were similar to those described in our previous publications, and indirect non-competitive and competitive ELISAs were sequentially used for hybridoma screening. The generated mAb was purified by protein G from the ascitic fluid and then stored at −20 °C for further analysis. A mouse antibody isotyping kit was used to determine the isotypes of the mAbs.
as §1, §2

Experiment [2] relates to 6F11-rAb. The experiment can be described thus: GNIS (gold lateral-flow immunosensing strip) assay based on 6F11-rAb. It is filed as binding, mouse. Conditions: for limit detection of T-line disappearance (visual detection limit): normal visual detection; for IC50: with a strip reader. An excerpt: The preparation method for the conjugate of rAb-gold nanoparticles was based on a previous report. A colloid gold lateral-flow immunosensing strip consisted of three pads (glass fiber membrane, NC membrane and absorption membrane) using a one-sided adhesive polyvinyl chloride sheet as a support. The prepared imidaclothiz-OVA conjugate and goat anti-mouse IgG antibody were immobilized onto the NC membrane as the test line (T line) and control line (C line), respectively. For analysis, standard solutions at different concentrations were added to the 96-well microtiter plate, and then the strip was inserted into the well. After 15 min, the signal was observed using a portable reader (Helmen, Suzhou, China). Standard curves were gained by plotting the signal ratio of the T line to the C line (T/C) against the analyte concentration, and they were also fitted into the four-parameter logarithmic equation.
The 6F11-rAb was used to establish a rapid and reliable GNIS assay, and the limit detection of T-line disappearance was 5 ng/mL for imidacloprid, clothianidin and imidaclothiz and over 100 ng/mL for thiacloprid, acetamiprid and nitenpyram, judged by normal visual detection (Figure 5). […] Therefore, imidacloprid, clothianidin and imidaclothiz, with better sensitivity, were further determined by spiking experiment.

The next experiment relates to mAb 1A5. The experiment can be described thus: icELISA with mAb 1A5 (hybridoma supernatant), coating antigen imidacloprid-OVA. The experiment is classed as binding, mouse. Conditions: for CR: mAb 1A5, cross-reactivity relative to imidacloprid; for IC50: mAb 1A5, hybridoma supernatant, icELISA. On the procedure:
as §3, §1
(§4) Moreover, sensitivity (IC50) and CR to eight neonicotinoids were assessed by icELISAs.

For experiment [3], the system named is anti-imidacloprid monoclonal antibody. Also noted: method as in PMID 31862564. As to conditions: anti-imidacloprid mAb, lateral-flow immunoassay; cited from earlier work.
The subject of the next experiment is mAb 6F11. The experiment can be described thus: icELISA with mAb 6F11 (hybridoma supernatant), coating antigen imidacloprid-OVA. It is filed as binding, mouse. Conditions: for CR: mAb 6F11, cross-reactivity relative to imidacloprid; for IC50: mAb 6F11, hybridoma supernatant, icELISA. On the procedure: as §3, §1, §4
Another experiment concerns mAb 4B1. As to the kind of experiment: icELISA with mAb 4B1 (hybridoma supernatant), coating antigen imidacloprid-OVA. It is filed as binding, mouse. As to conditions: for CR: mAb 4B1, cross-reactivity relative to imidacloprid; for IC50: mAb 4B1, hybridoma supernatant, icELISA. On the procedure:
as §3, §1, §4

Another experiment concerns mAb 5C3. As to the kind of experiment: icELISA with mAb 5C3 (hybridoma supernatant), coating antigen imidacloprid-OVA. As to conditions: for CR: mAb 5C3, cross-reactivity relative to imidacloprid; for IC50: mAb 5C3, hybridoma supernatant, icELISA. The experiment is classed as binding, mouse. On the procedure:
as §3, §1, §4

≈ marks a conversion by molar mass, not a printed value.

A word on the IC50: it is the concentration at which inhibition is half-maximal. As for `O=[N+]([O-])/C=C1\NCCN1Cc1ccc(Cl)nc1` [6-Cl-PMNI], the figures for the CR with 6F11-rAb [1] and in the experiment on 6F11-mAb were 100.6% and 132.9%, respectively. Further, the IC50 in the experiment on 6F11-rAb [1] turned out to be 0.36 ng/mL; in the experiment on 6F11-mAb it was 0.20 ng/mL.
As for `C/C(=N\C#N)N(C)Cc1ccc(Cl)nc1` [Acetamiprid, acetamiprid], the “limit detection of T-line disappearance (visual detection limit)” value (“limit detection of T-line disappearance” below) in the experiment with 6F11-rAb [2] is “over 100 ng/mL”. The CR in the experiment on 6F11-rAb [1] was 4.0%; with mAb 1A5, 2.6%; in the experiment with mAb 6F11, 9.5%; in the experiment with 6F11-mAb, 4.5%; in the experiment on mAb 4B1, 3.1%; in the experiment with mAb 5C3, 0.4%. Besides, the IC50 is 9.04 ng/mL in the experiment with 6F11-rAb [1]; 43.34 ng/mL in the experiment with mAb 1A5; 6.24 ng/mL with mAb 6F11; 5.92 ng/mL in the experiment on 6F11-mAb; 92.77 ng/mL in the experiment on mAb 4B1; 58.52 ng/mL in the experiment on mAb 5C3. The cross-reactivity in experiment [3] is listed as 1.1%.
Regarding `CN/C(=N\[N+](=O)[O-])NCc1cnc(Cl)s1` [Clothianidin, clothianidin], the “limit detection of T-line disappearance” value in the experiment with 6F11-rAb [2] is listed as 5 ng/mL. For the same compound, the IC50 in the experiment on 6F11-rAb [2] amounted to 0.5 ng/mL (≈ 2 nM); in the experiment with 6F11-rAb [1] it was 0.86 ng/mL; with mAb 1A5, 1.80 ng/mL; with mAb 6F11 it was 1.43 ng/mL; with 6F11-mAb, 0.46 ng/mL; in the experiment on mAb 4B1, 59.41 ng/mL. Moreover, the IC50 with mAb 5C3 came to 1.19 ng/mL. Moreover, the CR in the experiment with 6F11-rAb [1] is 41.7%; with mAb 1A5, 63.3%; with mAb 6F11, 41.3%; in the experiment on 6F11-mAb it was 58.3%; in the experiment on mAb 4B1 it was 4.9%; in the experiment on mAb 5C3, 20.2%. In experiment [3], the cross-reactivity is 4.1%.
With `CN/C(=N/CC1CCOC1)N[N+](=O)[O-]` (stereo not shown) [Dinotefuran, dinotefuran], the CR in the experiment with 6F11-rAb [1] is listed as less than 0.1%; with mAb 1A5 it was less than 0.1%; with mAb 1A5 (listed as dinotefuran), “without obvious CR”; in the experiment on mAb 6F11, less than 0.1%; in the experiment on mAb 6F11 (listed as dinotefuran), “without obvious CR”; with 6F11-mAb it was less than 0.1%. For the same compound, the CR in the experiment with mAb 4B1 was less than 0.1%; in the experiment with mAb 4B1 (listed as dinotefuran) it was “no CR”; in the experiment with mAb 5C3, less than 0.1%; with mAb 5C3 (listed as dinotefuran) it was “without obvious CR”. Also, the IC50 in the experiment on 6F11-rAb [1], in the experiment on mAb 1A5, with mAb 6F11, with 6F11-mAb, with mAb 4B1 and with mAb 5C3 was more than 1000 ng/mL in each case.
Turning to `O=[N+]([O-])/N=C1\NCCN1Cc1cnc(Cl)s1` [Imidaclothiz, imidaclothiz], the “limit detection of T-line disappearance” value in the experiment with 6F11-rAb [2] worked out at 5 ng/mL. The IC50 in the experiment with 6F11-rAb [2] is listed as 0.7 ng/mL (≈ 2.67 nM); with 6F11-rAb [1], 0.30 ng/mL; with mAb 1A5 it was 0.90 ng/mL; in the experiment on mAb 6F11, 0.48 ng/mL; in the experiment with 6F11-mAb, 0.23 ng/mL; with mAb 4B1 it was 41.09 ng/mL. Further, the IC50 in the experiment on mAb 5C3 came out at 2.79 ng/mL. For the same compound, the CR with 6F11-rAb [1] was found to be 119.8%; in the experiment with mAb 1A5, 126.7%; with mAb 6F11, 122.9%; in the experiment on 6F11-mAb, 115.1%; with mAb 4B1 it was 7.1%; in the experiment with mAb 5C3 it was 8.6%.
Regarding `O=[N+]([O-])/N=C1\NCOCN1Cc1cnc(Cl)s1` [N-desmethyl thiamethoxam], in the experiment with 6F11-rAb [1], the CR was 67.8% and the IC50 was 0.53 ng/mL. Further, in the experiment with 6F11-mAb, the CR amounted to 124.8%, the IC50 was 0.21 ng/mL and the “recognition by the antibody (6F11)” value is recorded as “very high affinity”.
Turning to `CCN(Cc1ccc(Cl)nc1)/C(=C/[N+](=O)[O-])NC` [Nitenpyram, nitenpyram], in the experiment with 6F11-rAb [2], the “limit detection of T-line disappearance” value is “over 100 ng/mL”. The CR in the experiment on 6F11-rAb [1] is on record as 5.1%; in the experiment on mAb 1A5, 3.7%; in the experiment on mAb 6F11 it was 8.2%; with 6F11-mAb, 4.8%; with mAb 4B1 it was less than 0.1%; with mAb 4B1 (listed as nitenpyram), “no CR”. Besides, in the experiment on mAb 5C3, the CR was 0.8%. The IC50 in the experiment with 6F11-rAb [1] was 7.07 ng/mL; in the experiment on mAb 1A5, 31.19 ng/mL; in the experiment with mAb 6F11, 7.16 ng/mL; in the experiment on 6F11-mAb, 5.57 ng/mL; in the experiment with mAb 4B1, more than 1000 ng/mL; in the experiment on mAb 5C3, 30.66 ng/mL.
`N#C/N=C1\SCCN1Cc1ccc(Cl)nc1` [Thiacloprid, thiacloprid]: the “limit detection of T-line disappearance” value in the experiment on 6F11-rAb [2] is “over 100 ng/mL”. Also, the CR in the experiment on 6F11-rAb [1] is on record as 12.5%; in the experiment with mAb 1A5, 2.7%; with mAb 6F11 it was 21.2%; in the experiment on 6F11-mAb, 20.6%; in the experiment on mAb 4B1 it was 10.2%; with mAb 5C3, 1.8%. Moreover, the IC50 worked out at 2.89 ng/mL in the experiment with 6F11-rAb [1]; 42.91 ng/mL in the experiment with mAb 1A5; 2.78 ng/mL in the experiment on mAb 6F11; 1.30 ng/mL with 6F11-mAb; 28.37 ng/mL with mAb 4B1; 13.39 ng/mL with mAb 5C3.
Consider `CN1COCN(Cc2cnc(Cl)s2)/C1=N\[N+](=O)[O-]` [Thiamethoxam, thiamethoxam], for which the CR in the experiment with 6F11-rAb [1] was less than 0.1%; with mAb 1A5 it was less than 0.1%; in the experiment with mAb 1A5 (listed as thiamethoxam), “without obvious CR”; in the experiment with mAb 6F11 it was less than 0.1%; in the experiment with mAb 6F11 (listed as thiamethoxam), “without obvious CR”; in the experiment on 6F11-mAb, less than 0.1%. Besides, the CR in the experiment on mAb 4B1 is reported as less than 0.1%; in the experiment on mAb 4B1 (listed as thiamethoxam), “no CR”; in the experiment with mAb 5C3 it was less than 0.1%; in the experiment with mAb 5C3 (listed as thiamethoxam), “without obvious CR”. The IC50 in the experiment on 6F11-rAb [1], in the experiment on mAb 1A5, in the experiment on mAb 6F11, in the experiment on 6F11-mAb, with mAb 4B1 and in the experiment with mAb 5C3 was more than 1000 ng/mL each time. The “recognition by the antibody (6F11)” value with 6F11-mAb was “cannot recognize”.

Values taken from article PMC9496258, “Trace Immunosensing of Multiple Neonicotinoid Insecticides by a Novel Broad-Specific Antibody Obtained from a Rational Screening Strategy” (Biosensors, 2022).
